Experimental data: ChEMBL document CHEMBL1201862, “PubChem BioAssay data set” (2004)
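Cultured in 96-well plates, cells were exposed to test compound for 48 hours across five concentrations. Here, GI50 denotes the concentration required for 50% inhibition of growth.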 Activity calls are given as the source filed them. Rule as the data show it: active = GI50 up to about 1.1 µM and inactive = higher.

How the values were obtained:
Assay in all cases: NCI-60 cell line screen, 48 h
[1] = tested on: 786-0
[2] = tested on: CAKI-1
[3] = tested on: DU-145
[4] = tested on: HCC 2998
[5] = tested on: HCT-15
[6] = tested on: HL-60
[7] = tested on: HT-29
[8] = tested on: K562
[9] = tested on: LOX IMVI
[10] = tested on: MDA-MB-231
[11] = tested on: MDA-MB-435
[12] = tested on: MDA-N
[13] = tested on: NCI/ADR-RES
[14] = tested on: OVCAR-3
[15] = tested on: RPMI-8226
[16] = tested on: SF-268
[17] = tested on: SF-295
[18] = tested on: SN12C
[19] = tested on: SNB-19
[20] = tested on: CCRF-CEM

SMILES | GI50 [1] | GI50 [2] | GI50 [3] | GI50 [4] | GI50 [5] [µM] | GI50 [6] | GI50 [7] | GI50 [8] | GI50 [9] | GI50 [10] | GI50 [11] | GI50 [12] | GI50 [13] | GI50 [14] | GI50 [15] | GI50 [16] | GI50 [17] | GI50 [18] | GI50 [19] | GI50 [20]
C=CCNC1=C2C[C@@H](C)C[C@@H](OC)[C@H](OC(=O)CCN)[C@H](C)/C=C(\C)[C@@H](OC(N)=O)[C@H](OC)/C=C\C=C(/C)C(=O)NC(=CC1=O)C2=O | 4.38 µM (inactive) | 12.2 µM (inactive) | 1.21 µM (inactive) | 1.06 µM (active) | 9.57 | 3.83 µM (inactive) | 0.409 µM (active) | 3.99 µM (inactive) | 3.03 µM (inactive) | 5.19 µM (inactive) | 2.98 µM (inactive) | 1.21 µM (inactive) | 76.2 µM (inactive) | 2.45 µM (inactive) | 6.08 µM (inactive) | 9.57 µM (inactive) | 3.75 µM (inactive) | 2.34 µM (inactive) | 6.27 µM (inactive) | 
CC(C)(C)N/C(N)=N/C#N | > 100 µM (inactive) | > 100 µM (inactive) | > 100 µM (inactive) | > 100 µM (inactive) | > 100 | > 100 µM (inactive) | > 100 µM (inactive) | > 100 µM (inactive) | > 100 µM (inactive) | > 100 µM (inactive) | > 100 µM (inactive) | > 100 µM (inactive) | > 100 µM (inactive) |  | > 100 µM (inactive) | > 100 µM (inactive) |  | > 100 µM (inactive) | > 100 µM (inactive) | > 100 µM (inactive)
O=C1CCC(=O)N1CNc1ccc2c(c1)S(=O)(=O)c1ccccc1O2 | > 100 µM (inactive) | > 100 µM (inactive) | > 100 µM (inactive) |  | > 100 | > 100 µM (inactive) | > 100 µM (inactive) | > 100 µM (inactive) | > 100 µM (inactive) | > 100 µM (inactive) | > 100 µM (inactive) | > 100 µM (inactive) | > 100 µM (inactive) | > 100 µM (inactive) | 54.7 µM (inactive) | > 100 µM (inactive) | > 100 µM (inactive) | > 100 µM (inactive) | > 100 µM (inactive) | > 100 µM (inactive)
O=C(Cn1c(C(=O)/C=C/c2ccc(Cl)c(Cl)c2)nc2ccccc21)c1ccccc1 | 18.8 µM (inactive) |  | 32.9 µM (inactive) | 17.8 µM (inactive) | 25.2 | 15.6 µM (inactive) | 16 µM (inactive) | 33.7 µM (inactive) | 17.9 µM (inactive) | 22.7 µM (inactive) | 19.1 µM (inactive) | 19.9 µM (inactive) | 21.8 µM (inactive) | 15.2 µM (inactive) | 23.8 µM (inactive) | 45.4 µM (inactive) |  | 16 µM (inactive) | 27.4 µM (inactive) | 6.92 µM (inactive)
Clc1ccc(-c2cn3c(nc4ccccc43)c(-c3ccccc3)n2)cc1 | 9.35 µM (inactive) | 16.3 µM (inactive) | > 71.9 µM (inactive) | 44.9 µM (inactive) | > 100 | > 100 µM (inactive) | 10.8 µM (inactive) | > 84.7 µM (inactive) | 32 µM (inactive) | 42.6 µM (inactive) | 25.2 µM (inactive) | 27.2 µM (inactive) | 34.9 µM (inactive) | 27.7 µM (inactive) | > 100 µM (inactive) | 48 µM (inactive) | 13.3 µM (inactive) | 36.5 µM (inactive) | 13.9 µM (inactive) | > 70.8 µM (inactive)
CC1=C(C)C(=O)C2=C(OCCO2)C1=O | 22.5 µM (inactive) | 17.6 µM (inactive) | 18.8 µM (inactive) | 19.5 µM (inactive) | 17.5 | 2.96 µM (inactive) | 20 µM (inactive) |  | 12.1 µM (inactive) | 4.47 µM (inactive) | 2.82 µM (inactive) | 10.3 µM (inactive) | 3.54 µM (inactive) | 10.3 µM (inactive) | 2.34 µM (inactive) | 27.1 µM (inactive) | 18.1 µM (inactive) | 20 µM (inactive) | 17.3 µM (inactive) | 3.73 µM (inactive)
CC(C)(C)C1=CC(=C(c2ccc(-c3c4nc(c(-c5ccc(C(=C6C=C(C(C)(C)C)C(=O)C(C(C)(C)C)=C6)c6cc(C(C)(C)C)c(O)c(C(C)(C)C)c6)cc5)c5ccc([nH]5)c(-c5ccc(C(=C6C=C(C(C)(C)C)C(=O)C(C(C)(C)C)=C6)c6cc(C(C)(C)C)c(O)c(C(C)(C)C)c6)cc5)c5nc(c(-c6ccc(C(=C7C=C(C(C)(C)C)C(=O)C(C(C)(C)C)=C7)c7cc(C(C)(C)C)c(O)c(C(C)(C)C)c7)cc6)c6ccc3[nH]6)C=C5)C=C4)cc2)c2cc(C(C)(C)C)c(O)c(C(C)(C)C)c2)C=C(C(C)(C)C)C1=O | > 77.8 µM (inactive) | > 100 µM (inactive) | > 100 µM (inactive) | > 100 µM (inactive) | > 100 | > 100 µM (inactive) | > 100 µM (inactive) | > 100 µM (inactive) | > 100 µM (inactive) | > 100 µM (inactive) | > 100 µM (inactive) | > 100 µM (inactive) | > 100 µM (inactive) | > 100 µM (inactive) | > 100 µM (inactive) | > 100 µM (inactive) | > 100 µM (inactive) | > 100 µM (inactive) | > 100 µM (inactive) | > 100 µM (inactive)
CCN(CC)CCN1c2ccccc2Sc2ccc3ccccc3c21 | 11.3 µM (inactive) | 8.89 µM (inactive) | 3.93 µM (inactive) | 2.23 µM (inactive) | 6.9 | 3.54 µM (inactive) | 3.18 µM (inactive) | 4.66 µM (inactive) | 7.52 µM (inactive) | 6.03 µM (inactive) | 8.63 µM (inactive) | 12.3 µM (inactive) | 10.6 µM (inactive) | 11.6 µM (inactive) | 3.33 µM (inactive) | 14.4 µM (inactive) | 13.2 µM (inactive) | 11.7 µM (inactive) | 15.3 µM (inactive) | 2.92 µM (inactive)
C[C@H]1/C(=C/C(=O)OCCN(C)C)CC[C@H]2[C@H]1C(=O)C[C@H]1C(C)(C)[C@@H](O)CC[C@]21C | > 100 µM (inactive) | > 100 µM (inactive) | > 100 µM (inactive) | > 100 µM (inactive) | > 100 | > 100 µM (inactive) | > 100 µM (inactive) |  | > 100 µM (inactive) | > 100 µM (inactive) | > 100 µM (inactive) | > 100 µM (inactive) | > 100 µM (inactive) | > 100 µM (inactive) | > 100 µM (inactive) | > 100 µM (inactive) | > 100 µM (inactive) | > 100 µM (inactive) | > 100 µM (inactive) | > 100 µM (inactive)
COc1ccc(C(=O)c2sc(N(C)C)nc2-c2ccccc2)cc1 | 34.4 µM (inactive) |  | 49 µM (inactive) | 18.2 µM (inactive) | 26.4 | 17.1 µM (inactive) | 32.9 µM (inactive) | 35.4 µM (inactive) | 37.4 µM (inactive) | 33.7 µM (inactive) | 6.4 µM (inactive) | 18.1 µM (inactive) | 19.8 µM (inactive) | 16.8 µM (inactive) | 33 µM (inactive) | 40.1 µM (inactive) |  | 39.6 µM (inactive) | 64.3 µM (inactive) | 5.07 µM (inactive)
CC(C)(C)OC(=O)n1c2ccccc2c2c(=O)nc(N3CCCCC3)sc21 | > 100 µM (inactive) | > 100 µM (inactive) | > 100 µM (inactive) |  | > 100 | > 100 µM (inactive) | > 100 µM (inactive) | > 100 µM (inactive) | > 100 µM (inactive) | > 100 µM (inactive) | > 100 µM (inactive) | > 100 µM (inactive) | > 100 µM (inactive) | > 100 µM (inactive) | > 100 µM (inactive) | 58.9 µM (inactive) | > 100 µM (inactive) | > 100 µM (inactive) | > 100 µM (inactive) | > 100 µM (inactive)
NC(=S)NNC(=S)NC(=O)c1ccco1 | > 10 µM (inactive) | > 10 µM (inactive) | > 10 µM (inactive) | > 10 µM (inactive) | > 10 | > 10 µM (inactive) | > 10 µM (inactive) | > 10 µM (inactive) | > 10 µM (inactive) | > 10 µM (inactive) | > 10 µM (inactive) | > 10 µM (inactive) | > 10 µM (inactive) | > 10 µM (inactive) | > 10 µM (inactive) | > 10 µM (inactive) |  | > 10 µM (inactive) | > 10 µM (inactive) | > 10 µM (inactive)
O=C(Nc1ccccc1Cl)c1cc(S(=O)(=O)Nc2n[nH]c(=O)n2-c2ccccc2)c(S)cc1Cl | > 100 µM (inactive) | > 100 µM (inactive) | > 100 µM (inactive) | > 100 µM (inactive) | > 100 | > 100 µM (inactive) | > 100 µM (inactive) |  | > 100 µM (inactive) | > 100 µM (inactive) | > 100 µM (inactive) | > 100 µM (inactive) | > 100 µM (inactive) | > 100 µM (inactive) | > 100 µM (inactive) | > 100 µM (inactive) | > 100 µM (inactive) | > 100 µM (inactive) | 92.3 µM (inactive) | > 100 µM (inactive)
CCCCCCCCCCCCCCCCOP(=O)([O-])OCC[N+](C)(C)C [MILTEFOSINE] | 9.55 µM (inactive) | 10.3 µM (inactive) | 19.4 µM (inactive) | 5.38 µM (inactive) | 10.5 | 4.74 µM (inactive) | 7.8 µM (inactive) | 39 µM (inactive) | 21.5 µM (inactive) | 21.8 µM (inactive) | 17.9 µM (inactive) | 25.1 µM (inactive) | 43.4 µM (inactive) | 23.9 µM (inactive) | 6.1 µM (inactive) | 22.1 µM (inactive) | 7.69 µM (inactive) | 16.1 µM (inactive) | 17.7 µM (inactive) | 
